Test results: patent US20200148803A1, “POLYMERIZABLE MULTIFUNCTIONAL ANTIMICROBIAL QUATERNARY AMMONIUM MONOMERS, METHODS OF SYNTHESIS, AND USES THEREOF” (ADA Foundation, priority 2018, published 2020)

What was measured:
[1] = Sessile drop water contact angle (CA) on resin pellets; type: physicochemical
Protocol: (§1) Experimental resin (UPE) was formulated from the commercially available monomers urethane dimethacrylate (UDMA, 50.91% w/w), polyethylene glycol extended urethane dimethacrylate (PEG-U, 18.18% w/w), and ethyl 2-(hydroxymethyl)acrylate (EHMA, 30.91% w/w). A conventional visible light initiator system comprised of camphorquinone (0.2% w/w) and ethyl-4-N,N-dimethylamino benzoate (4EDMAB, 0.8% w/w) was utilized. […] Copolymer specimens (beams) were prepared by depositing UPE (UPE resin control) and AM-UPE resins into glass molds (2 mm×2 mm×25 mm) and photopolymerizing them with a dental curing light (Triad 2000, Dentsply, Charlotte, N.C., USA) for 2 minutes from two sides. Copolymer specimens (pellets) were prepared by depositing UPE and AM-UPE resins into a stainless-steel mold (1 mm×16 mm), sandwiched between two sheets of Mylar film and two glass slides and photopolymerized in the same manner as the beam samples. Degree of vinyl conversion (DVC) of UPE and AM-UPE resins was determined utilizing beam samples by collecting the near infra-red (NIR) spectra (Nexus 670, ThermoFisher, Madison, Wis., USA) before and 24 h after polymerization and calculating the reduction in absorption band at 6165 cm^−1 corresponding to the vinyl (C═C—H) overtone signal. By maintaining a constant specimen thickness, a need for an invariant internal standard was eliminated. The DVC was calculated as: […]
(§2) where Area(polymer) and Area(monomer) correspond to the areas under 6165 cm^−1 peaks after and before the polymerization, respectively. After DVC analysis, flexural strength (FS) and elastic modulus (E) of beam specimen were determined employing the Universal Testing Machine (Instron 5500R, Instron Corp., Canton, Mass., USA). The load was applied (at cross-head speed of 1 mm/min) to the center of a specimen positioned on a test device with supports 20 mm apart. The FS and E of the specimens (three replicates/experimental group) was calculated as instructed in the ISO4049:2009 document. Changes in hydrophilicity/hydrophobicity of UPE resins due to the introduction of AM monomers were assessed on pellet specimen by sessile drop contact angle (CA) measurements (drop shape analyzer DSA100, Krüss GmbH, Hamburg, Germany). Following the deposition of 4 μL water droplets on the resin pellets, the pellets were imaged after 1 min resting time with a camera at the points of intersection (three-phase contact points) between the drop contour and the projection of the surface (baseline). The CA water values were calculated employing the Krüss Advance software. At least four repetitive measurements were performed in each group. Analysis of variance (ANOVA) and Newman-Keuls multiple paired comparisons (at 95% confidence level) were used to analyze the experimental data as a function of resin composition and establish a statistical significance of differences between the experimental groups (WINKS 7.0.9, TexaSoft, Cedar Hills, Tex., USA).

CCL1 cells = experiment: Cellular metabolic activity (CellTiter AQueous One Solution Reagent), CCL1 cells; type: cell-based; settings: two-fold serial dilutions, 24 h and 72 h
[2] = Degree of vinyl conversion (DVC) by near infra-red spectra of copolymer beams; type: physicochemical
Protocol: as §1, §2

[3] = tested on: human gingival fibroblasts (HGF); experiment: Direct contact cytotoxicity, LIVE/DEAD viability, HGF cells; type: cell-based
Protocol: (§3) Immortalized human gingival fibroblasts (HGF) were purchased from Applied Biological Materials, Inc. (Richmond, British Columbia, Canada). […] For experiments, cells were obtained from a subconfluent stock culture.
(§4) Direct contact cytotoxicity testing was conducted as previously described^7, 8. Briefly, cells were exposed to two-fold serial dilutions of AMadh series monomers or AMsil series monomers to approximate the maximum possible exposure, (Table 9). Table 9 illustrates biocompatibility testing using maximum possible monomer exposure (mmol/L), assuming 7% mass fraction in the restorative with a maximum of 2% leaching. To account for multiplicity and variable size of restorations, a two- and four-fold greater dilution was also included in the testing. After 24 and 72 h, cells were assessed for cell viability using the LIVE/DEAD® Viability/Cytotoxicity kit (Life Technologies, Corp., Grand Island, N.Y.). Cellular metabolic activity was subsequently assessed using the CellTiter® AQueous One Solution Reagent (Promega, Corp., Madison, Wis.). Negative controls were without the novel monomer and/or cells. Mean+standard error was obtained from five independent replicates tested in triplicate.

[4] = tested on: human gingival fibroblasts (HGF); experiment: Cellular metabolic activity (CellTiter AQueous One Solution Reagent), HGF cells; type: cell-based; settings: two-fold serial dilutions, 24 h and 72 h
Protocol: as §3, §4

[5] = tested on: mouse subcutaneous connective tissue fibroblasts (NCTC clone 929, CCL1); experiment: Direct contact cytotoxicity, LIVE/DEAD viability, CCL1 cells; type: cell-based
[6] = tested on: human liver cells (HepG2-AD13); experiment: Direct contact cytotoxicity, Luciferase Assay System, HepG2-AD13 cells; type: cell-based; settings: 6 h
Protocol: Immortalized human liver cells (hereafter HepG2-AD13) were obtained from collaborators at Aichi Gakuin University, Japan. The cells were maintained (37° C., 5% CO2) in Dulbecco's Modified Eagle's medium supplemented with 10% fetal bovine serum. For experiments, cells were obtained from a subconfluent stock culture.
Direct contact cytotoxicity testing was conducted by exposing cells to two-fold serial dilutions of AMmis2 (Table 8) to approximate the maximum possible exposure, assuming 7% mass fraction in the composite with a maximum of 2% leaching. To account for multiplicity and variable size of restorations, a four-fold greater dilution was also included in the testing. After 6 h, cells were assessed for cell viability using a Luciferase Assay System (Promega Corp., Madison, Wis.). Negative controls were without the AMmis2 and/or cells. Mean+standard error was obtained from five independent replicates tested in quadruplicate.

[7] = two-fold serial dilutions, 24 h and 72 h

Question: Which CA ([1]; 10 mass % monomer in UPE resin) does the source give for `C=C(C)C(=O)OCC[N+](C)(C)CCCCCCCCCCC[Si](OC)(OC)OC.[Br-]` [AMsil2, N-(2-(methacryloyloxy)ethyl)-N,N-dimethyl-11-(trimethoxysilyl)undecan-1-aminium bromide] here?
Answer: 37.4±9.2 °

Question: What about the “reduction of CA relative to UPE resin control” value ([1]; 10 mass % monomer in UPE resin) of the same molecule?
Answer: 38%

Question: And the “effect on hydrophobic-hydrophilic properties of the copolymer” value ([1]; 10 mass percent in UPE resin)?
Answer: a shift towards the lower CA values

Question: What about the “effect on hydrophobic-hydrophilic properties of the copolymer” value ([1]; 20 mass percent in UPE resin) of the same molecule?
Answer: maintained the hydrophobic-hydrophilic balance

Question: What about the “effect of monomer concentration on CCL1 metabolic activity” value (CCL1 cells) of the same molecule?
Answer: exerted an effect

Question: What about the “DVC compared to UPE resin control” value ([2]; 10 mass percent in UPE resin) of the same molecule?
Answer: did not change the copolymer DVC

Question: And the “reduction of DVC relative to UPE resin control” value ([2]; 20 mass percent in UPE resin)?
Answer: 12.9%

Question: What about the “effect of exposure time on HGF live cells, difference of means” value ([3]; 24 h vs 72 h, regardless of concentration) of the same molecule?
Answer: ~23%

Question: And the “effect of monomer concentration on HGF cell viability” value [3, 7]?
Answer: exhibited a concentration effect

Question: What about the “reduction of number of live HGFs compared to the control group” value ([3]; ≥1.82 mmol/L) of the same molecule?
Answer: more than 3 fold

Question: And the “effect on metabolic activity of HGF cells” value [4]?
Answer: exhibited an effect

Question: What about the “effect of monomer concentration on CCL1 cell viability” value [5, 7] of the same molecule?
Answer: exerted a main effect

Question: And the “percentage of live CCL1 cells, fold lower compared to concentrations ≤0.91 mmol/L” value ([5]; ≥1.82 mmol/L, 72 h exposure)?
Answer: 3 to 4 fold

Question: What about the “live CCL1 cells compared to lower concentrations” value ([5]; ≥3.64 mmol/L, 24 h exposure) of the same molecule?
Answer: lower

Question: For “2-(methacryloyloxy)-N,N,N-trimethylethan-1-aminium methacrylate [AMmis2]”, which “effect on HepG2-AD13 cells compared to negative control” value ([6]; concentrations ≤1.812 mmol/L) is on record?
Answer: did not exert a significant effect

Question: And the “relative luminescence units, fold greater than at all lower concentrations” value ([6]; concentrations ≥3.623 mmol/L)?
Answer: at least 1.5 fold
